# Results from patent publication US20050009775A1 (priority 2001, published 2005).
# System: HCV replicon in the 5-15 subline of Huh-7 cells
# Test: Replicon ELISA (HCV replicon assay)
# Type: cell-based, hepatitis C virus (HCV 1b)
# Conditions: Hepatitis C virus; Huh-7 5-15 cells, HCV 1b replicon, 72 hours, NS4a ELISA
# Source text: The 5-15 subline of Huh-7 cells (Lohmann, V., Korner, F., Koch, J-O., Herian, U., Theilmann, L. & Bartenschlager, R., 1999, Science, 2, pp 110-113) were used for these assays. These are human hepatocellular carcinoma cells stably transfected with an HCV replicon comprising the majority of the HCV 1b genome with the addition of a selectable marker gene, but lacking the genes encoding for all structural proteins and non-structural protein (NS) 2. The replicon RNA is self-replicating and fully functional viral proteins are translated from it. A quantifiable and specific reduction of expressed protein in the presence of a drug can be used as a measure of replicon inhibition.
# Stock solutions of compound samples were formulated to 40 mM in DMSO. […]
# ELISA step: Growth medium was removed from the plate and the cell monolayers were washed gently once with phosphate buffered saline (PBS) prior to fixing with a 1:1 mix of acetone:methanol for 5 minutes. […] The reaction was stopped by the addition of 25 μl per well of 2M sulphuric acid and the plates were read spectrophotometrically at 490 nm. […]
# The absorbance values from all compound-free wells that had received both primary and secondary antibodies were averaged to obtain a positive control value. The mean absorbance value from the compound-free wells that had not received the primary antibody was used to provide the negative (background) control value. […]
row,Structure (SMILES),IC50 [µM]
1,COC(=O)[C@H](C)NP(=O)(OC[C@@H]1C[C@@H](O)[C@H](n2ccc(N)nc2=O)O1)Oc1ccccc1 (some centres unmarked) [Example 2],< 200
2,C[C@H](NP(=O)(OC[C@@H]1C[C@@H](O)[C@H](n2ccc(N)nc2=O)O1)Oc1ccccc1)C(=O)OCc1ccccc1 (some centres unmarked) [Example 3],< 200
